Measured values published in a melting point compilation (Tetko et al.).

| Compound | melting point |
| --- | --- |
| CCCOc1ccccc1C(N)=S | 100 to 102 °C |
| Nc1nc(-c2ccccc2)c(-c2ccccc2)o1 | 150 to 152 °C |
| NS(=O)(=O)c1ccc(C(=O)O)cn1 | 219 to 221 °C |
| O=C(O)C1(c2cccc(F)c2)CCC1 | 67 to 69 °C |
| COc1ccc(-c2nc(C)c(C(C)=O)s2)cc1 | 92 to 94 °C |
| O=CNc1cc([N+](=O)[O-])ccc1Cl | 183 to 185 °C |
| COc1ccc(NC(=O)C(C)Cl)cc1OC (stereo unspecified) | 109 to 111 °C |
| CCOC(=O)c1c[nH]n(CC(=O)O)c1=N | 195 to 197 °C |
| CCCCc1ccc(CC(=O)O)cc1 | 78 to 80 °C |
| O=S1(=O)CC(SCc2ccccc2)c2ccccc21 (stereo unspecified) | 72 to 74 °C |
| CC(C)(C)c1nc(C#N)c(NN)o1 | 164 to 166 °C |
| CN(C(=O)CCl)C1(C#N)CCCCC1 | 86 to 90 °C |
| Nc1ccc2c[nH]nc2c1 | 204 to 206 °C |
| Clc1cc2ccccc2c(Cl)n1 | 100 to 102 °C |
| CN(C)C(=O)c1ccc(C=O)[nH]1 | 165 to 167 °C |
| O=c1[nH]cnc2c1nnn2-c1ccccc1 | 279 to 281 °C |
| NC(=O)NCCc1cccnc1 | 152 to 154 °C |
| O=C(O)Cn1c(-c2cscn2)nc2ccccc21 | 256 to 258 °C |
| O=Cc1ccc(Oc2cnccn2)cc1 | 79 to 81 °C |
| NC(=O)N1CCOCC1 | 106 to 108 °C |
| Cn1cc(C(N)=S)cn1 | 189 to 191 °C |
| CCNC(=O)c1cccc(O)c1 | 160 to 162 °C |
| COC(=O)c1c(F)cccc1S(=O)(=O)Cl | 46 to 48 °C |
| CCOC(=O)c1cnn2c3c(cnc12)CCOC3=O | 246 to 248 °C |
| Nc1ccc(Oc2ccc(C(F)(F)F)cn2)c(F)c1 | 90 to 92 °C |

| Compound | melting point |
| --- | --- |
| Cc1nn(-c2ccccc2)c2sc(C(=O)NN)cc12 | 264 to 266 °C |
| COc1ccc(COCc2cccc(N)c2)cc1 | 55 to 57 °C |
| Cc1cc(C)c(NC(=O)CCl)c(C)c1 | 153 to 157 °C |
| Sc1nnc(-c2ccc(Cl)cc2)n1Cc1ccco1 | 117 to 119 °C |
| CCC(C)(NC(=O)c1ccccc1)C(N)=S (stereo unspecified) | 162 to 164 °C |
| Cc1cccc(NC(=O)N2CCC(C(=O)O)CC2)c1 | 189 to 191 °C |
| O=C(O)c1ccc2c(c1)CCC2 | 173 to 175 °C |
| CC(C)(C)N1C(=O)CNC1=O | 84 to 86 °C |
| COc1ccc(O)c(C(C)(C)C)c1 | 61 to 63 °C |
| CNS(=O)(=O)c1ccccc1N | 53 to 55 °C |
| Cc1ccc(F)cc1S(=O)(=O)Nc1cccc(C(=O)O)c1 | 215 to 217 °C |
| O=C(O)C1CCCN1C(=O)c1cc(Cl)ccc1Cl (stereo unspecified) | 194 to 196 °C |
| CC(C)(C)OC(=O)Nc1ccc(CC#N)cc1 | 119 to 121 °C |
| O=C(O)Cn1c(=O)[nH]c2ccccc21 | 247 to 249 °C |
| c1ccc(-c2nnco2)nc1 | 224 to 226 °C |
| N#Cc1ccc(S(=O)(=O)Cl)c(F)c1 | 61 to 63 °C |
| Nc1cc(-c2cccc(Cl)c2)nn1CCO | 146 to 148 °C |
| CS(=O)(=O)c1ccc2c(c1)CCCN2 | 112 to 114 °C |
| O=C(O)c1coc(-c2ccccc2Cl)n1 | 179 to 181 °C |
| Cn1cnc(S(=O)(=O)NC2CCCC2)c1Cl | 136 to 138 °C |
| N#Cc1cc(C(F)(F)F)ccc1N | 72 to 74 °C |
| Cc1cc(C)cc(C(N)c2cccnc2)c1 (stereo unspecified) | 47 to 49 °C |
| O=C(O)c1cc(S)ccc1Br | 146 to 148 °C |
| CNCC(=O)Nc1ccc(C)cn1 | 79 to 81 °C |
| Cc1cc(S(=O)(=O)Cl)sc1C(=O)O | 194 to 196 °C |

| Compound | melting point |
| --- | --- |
| CC(=O)Nc1ccc(S(=O)(=O)NCc2ccc(C(=O)O)cc2)cc1 | 269 to 271 °C |
| Cc1c(O)cccc1OCCN1CCOCC1 | 117 to 119 °C |
| N#CCC(=O)c1ccsc1 | 92 to 94 °C |
| CCOC(=O)c1ccc(NCC2CC2)cc1 | 69 to 71 °C |
| Cc1ccccc1-n1c(S)nnc1-c1cccnc1 | 94 to 96 °C |
| CC(Cl)C(=O)Nc1ccccc1Cc1ccccc1 (stereo unspecified) | 144 to 146 °C |
| O=C(O)c1c[nH]c2ccc([N+](=O)[O-])cc12 | 255 to 257 °C |
| CC(C)n1ccc(=O)nc1S | 254 to 256 °C |
| CCN(CC)Cc1nc(Cl)c2c(C)c(C)sc2n1 | 30 to 32 °C |
| O=c1[nH]c(-c2cccc(Cl)c2)cs1 | 163 to 165 °C |
| NC(=O)c1ccc(N)cc1N1CCCCC1 | 142 to 144 °C |
| CC(C)(C#N)S(=O)(=O)c1ccc(Br)cc1 | 118 to 120 °C |
| CC(NC(=O)c1ccc2[nH]ncc2c1)C(=O)O (stereo unspecified) | 229 to 231 °C |
| CC(C)(C)OC(=O)Nc1cccc(C#N)c1 | 127 to 129 °C |
| CCOC(=O)c1c(N)oc(C)c1C(C)=O | 135 to 137 °C |
| Cc1ccnc2c1NC(=O)CN2 | 216 to 218 °C |
| COC(=O)c1ccc(=O)[nH]n1 | 188 to 190 °C |
| Cc1nc(-c2ccccc2N)no1 | 77 to 79 °C |
| CC(=O)c1cccc(NS(C)(=O)=O)c1 | 91 to 93 °C |
| Cc1ccc(-c2nonc2N)cc1 | 139 to 141 °C |
| COCc1c(C(=O)O)oc2ccccc12 | 119 to 121 °C |
| O=C(Cc1ccc(Br)cc1)Nc1cccc(C(=O)O)c1 | 291 to 293 °C |
| O=Cc1c(Cl)cccc1OCc1ccccc1Cl | 92 to 94 °C |
| NC(CCCO)c1ccccc1 (stereo unspecified) | 72 to 74 °C |
| O=C(O)CSCC(=O)Nc1cccc(Br)c1 | 63 to 65 °C |

| Compound | melting point |
| --- | --- |
| CCN(CC)C(=O)CCC(=O)O | 74 to 76 °C |
| Cn1cc(Br)c([N+](=O)[O-])n1 | 157 to 159 °C |
| N#CC(C(=O)CCl)c1nc(-c2ccccc2)cs1 (stereo unspecified) | 215 to 217 °C |
| O=C(O)c1c(-n2cccc2)sc2c1CCSC2 | 169 to 171 °C |
| COc1cc(F)cc(C(=O)O)c1N | 211 to 213 °C |
| Cc1cccc(C(N)C(=O)O)c1 (stereo unspecified) | 229 to 231 °C |
| COc1ccc(S(=O)(=O)NC(C)(C)C)c(CC(=O)O)c1 | 198 to 200 °C |
| O=C(O)CCc1ccc(F)cc1F | 108 to 110 °C |
| NC(=O)CSc1ccccc1NC(=O)CCl | 129 to 131 °C |
| Cc1ncc(-c2ccc(N)cc2)o1 | 126 to 128 °C |
| COCCOc1cc2c(cc1CO)OCO2 | 56 to 58 °C |
| CSc1ccccc1CC(=O)O | 115 to 117 °C |
| CC(O)C(NC(=O)C1CC1C)C(=O)O (stereo unspecified) | 138 to 140 °C |
| CSc1ccc(Cl)c(C(N)=O)c1 | 144 to 146 °C |
| O=C(O)CSc1ncn[nH]1 | 154 to 156 °C |
| Nc1nonc1-c1cccc(Cl)c1 | 133 to 135 °C |
| CCOC(=O)/C(C#N)=C\Nc1ccc(F)c(F)c1F | 142 to 144 °C |
| Cn1[nH]c(=O)nc1S | 216 to 220 °C |
| COc1cccc(CNC(N)=O)c1 | 111 to 113 °C |
| Cc1cccc(NC(=O)C2CCCNC2)n1 (stereo unspecified) | 124 to 126 °C |
| Nc1ccc(N2CCCCC2)c(Cl)c1 | 53 to 55 °C |
| Cc1ccc(C(=O)CC#N)c(C)c1 | 78 to 80 °C |
| OCCCNC(c1ccccc1)c1ccccc1 | 62 to 64 °C |
| CC(C)C(Br)C(=O)N1CCc2ccccc2C1 (stereo unspecified) | 90 to 92 °C |
| NC(=O)COc1ccc(Cl)cc1S(N)(=O)=O | 214 to 216 °C |

| Compound | melting point |
| --- | --- |
| OCCc1ccc(O)c(-n2nc3ccccc3n2)c1 | 120 to 123 °C |
| O=C(O)C(Cc1ccccc1)NS(=O)(=O)c1ccccc1F (stereo unspecified) | 258 to 260 °C |
| C#CCSc1cccc(C(=O)O)c1 | 121 to 123 °C |
| O=Cc1cc(O)c(O)c(Cl)c1 | 234 to 236 °C |
| O=S1(=O)CCC(CO)CC1 | 86 to 88 °C |
| O=C(O)CCNS(=O)(=O)C=Cc1ccccc1 | 119 to 123 °C |
| CCn1nc(C(=O)O)ccc1=O | 203 to 205 °C |
| Cc1ccc2[nH]c(C(=O)O)cc2c1 | 218 to 220 °C |
| O=C(O)c1cc(=O)n(-c2ccccc2)[nH]1 | 256 to 258 °C |
| O=C(O)CCCn1cccn1 | 74 to 76 °C |
| O=C(O)c1ccc(Br)cc1-n1cncn1 | 293 to 295 °C |
| NS(=O)(=O)c1cccc(N2CC(C(=O)O)CC2=O)c1 (stereo unspecified) | 168 to 170 °C |
| OCc1nc2cccnc2[nH]1 | 210 to 212 °C |
| Cc1cc(C=O)nc(N2CCCCC2)n1 | 49 to 51 °C |
| Cn1nnnc1-c1cccc(NC(=O)OCC(F)(F)F)c1 | 128 to 130 °C |
| CCc1ccc2c(CCl)cc(=O)oc2c1 | 138 to 140 °C |
| Cc1ccc(C(=O)O)cc1NC(=O)c1ccccc1 | 269 to 271 °C |
| CCn1c(C)cc(C(=O)CCl)c1C | 89 to 91 °C |
| CC(C)(C)OC(=O)NC1CCCCCC1C(=O)O (stereo unspecified) | 123 to 125 °C |
| CN(Cc1ccccc1)C(=O)c1ccccc1C(=O)O | 153 to 155 °C |
| CC(Nc1nc2ccccc2s1)C(=O)NN (stereo unspecified) | 174 to 176 °C |
| Oc1cccc(-c2nnc3n2CCCCC3)c1 | 244 to 246 °C |
| CC1CC(N)C(=O)N1c1ccccc1 (stereo unspecified) | 77 to 79 °C |
| CC(C#N)CSc1ccccc1N (stereo unspecified) | 65 to 67 °C |
| O=S(=O)(Cl)c1cnc(Cl)c(Cl)c1 | 46 to 48 °C |

| Compound | melting point |
| --- | --- |
| Nc1ncc(Cc2ccc(Cl)c(C(F)(F)F)c2)s1 | 70 to 72 °C |
| O=C(O)/C=C/C1=C(Cl)c2ccccc2S1(=O)=O | 266 to 268 °C |
| O=[N+]([O-])c1cnc(Br)c(Br)c1 | 76 to 78 °C |
| NS(=O)(=O)Cc1ccc(Br)cc1 | 191 to 193 °C |
| Cc1c[nH]c(=O)n1-c1cccc(C#N)c1 | 189 to 191 °C |
| Fc1ccc(-c2nnc3cc(Cl)ncn23)c(F)c1 | 170 to 172 °C |
| CCCCCCn1nc(C(=O)O)c2ccccc2c1=O | 124 to 126 °C |
| N#Cc1ccc(S(N)(=O)=O)cc1C(F)(F)F | 195 to 197 °C |
| CN(C)S(=O)(=O)c1ccc(I)c(C(=O)O)c1 | 198 to 200 °C |
| CN(C)CCn1nnnc1S | 213 to 215 °C |
| C#Cc1cccc(NC(=O)CCl)c1 | 120 to 122 °C |
| O=C(NC1CC1)C1CCNCC1 | 135 to 137 °C |
| Cn1c(C(=O)O)cc2ccccc21 | 212 to 213 °C |
| CCNC(=O)c1ccc(NC2CCOCC2)c(C)c1 | 195 to 197 °C |
| Cc1ccc(C(=O)NN)c(O)c1 | 173 to 175 °C |
| CC(C)(C)OC(=O)N1CCC(NC(N)=O)CC1 | 217 to 219 °C |
| CCNC(=O)CCC(=O)O | 84 to 86 °C |
| Cn1cc(C=NNC(N)=S)cn1 | 189 to 191 °C |
| CC1CNCC(C)N1C(=O)OC(C)(C)C (stereo unspecified) | 61 to 63 °C |
| CCOc1ccccc1C(=O)CBr | 74 to 76 °C |
| O=C(O)C1CC(=O)N(C2CCS(=O)(=O)C2)C1 (stereo unspecified) | 255 to 257 °C |
